Earlier results in article PMC8838197, “Coumarin-Resveratrol-Inspired Hybrids as Monoamine Oxidase B Inhibitors: 3-Phenylcoumarin versus trans-6-Styrylcoumarin” (Molecules, 2022).

Tested on: MAO-B
Parameters: pIC50 MAO-B: unit not given here
Details: cited from earlier work; for pIC50 MAO-B: Table S8; for MAO-B pIC50: data set compounds

| SMILES | pIC50 MAO-B | MAO-B pIC50 |
| --- | --- | --- |
| Cc1ccc2oc(=O)c(-c3cccc([N+](=O)[O-])c3)cc2c1 [Compound 87] | 8.222 | – |
| Cc1ccc2oc(=O)c(C(=O)Nc3ccc(O)cc3)cc2c1 [Compound 109] | 6.206 | < 6.5 |
| COc1ccc2oc(=O)c(-c3ccc(Br)cc3)cc2c1 [Compound 66, 3-(4′-bromophenyl)-6-mehtoxycoumarin] | 9.495 | > 6.5 |
| Cc1ccc2oc(=O)c(C(=O)Nc3ccccc3Br)cc2c1 [Compound 104] | 7.87 | – |
| COc1ccc2oc(=O)c(-c3ccc(C)cc3)cc2c1 [Compound 13] | 8.818 | – |
| O=C(Nc1cc2ccccc2oc1=O)C1CCCCC1 [Compound 49] | 4.301 | – |
| COc1ccc2oc(=O)c(C(=O)Nc3cccc(Cl)c3)cc2c1 [Compound 118] | 8.044 | – |
| Cc1ccc2oc(=O)c(C(=O)Nc3cccc(O)c3)cc2c1 [Compound 108] | 7.343 | – |
| COc1ccc(NC(=O)c2cc3cc(C)ccc3oc2=O)cc1 [Compound 103] | 6.527 | – |
| COc1ccc(-c2c(O)c3ccccc3oc2=O)cc1 [Compound 26] | 4.157 | – |
| COc1ccc(-c2cc3cc(C)cc(Br)c3oc2=O)cc1 [Compound 9] | 8.491 | – |
| COc1cc(-c2cc3cc(C)ccc3oc2=O)cc(OC)c1OC [Compound 4] | 6.794 | – |
| Cc1ccc2oc(=O)c(-c3ccc(O)c(O)c3)cc2c1 [Compound 136] | 5.328 | – |
| Cc1ccc2occ(C(=O)Nc3ccc(O)cc3)c(=O)c2c1 [Compound 128] | 6.29 | < 6.5 |
| Cc1cccc(NC(=O)c2cc3cc(C)ccc3oc2=O)c1 [Compound 99] | 8.124 | – |
| Cc1cc(=O)oc2cc(NC(=O)c3ccccc3)ccc12 [Compound 159] | 6.444 | – |
| Cc1ccc2oc(=O)c(-c3cccc(N)c3)cc2c1 [Compound 90] | 8.658 | – |
| Cc1ccc2occ(C(=O)Nc3cccc(O)c3)c(=O)c2c1 [Compound 125] | 7.107 | – |
| COc1cccc(NC(=O)c2cc3cc(C)ccc3oc2=O)c1 [Compound 102] | 7.996 | – |

| SMILES | pIC50 MAO-B | MAO-B pIC50 |
| --- | --- | --- |
| Cc1ccc2oc(=O)c(C(=O)Nc3ccc(Cl)cc3)cc2c1 [Compound 114] | 7.955 | > 6.5 |
| COc1ccc2oc(=O)c(C(=O)Nc3ccc(Cl)cc3)cc2c1 [Compound 121] | 7.724 | > 6.5 |
| O=C(Nc1cc2ccccc2oc1=O)c1cccs1 [Compound 94] | 5.644 | – |
| COc1ccc2oc(=O)c(-c3ccccc3)cc2c1 [Compound 62] | 6.384 | – |
| COc1ccc2occ(C(=O)Nc3cccc(O)c3)c(=O)c2c1 [Compound 132] | 6.945 | – |
| COc1cc(C(=O)Nc2c(O)c3ccccc3oc2=O)cc(OC)c1OC [Compound 92] | 4.433 | – |
| Cc1cccc(-c2cc3cc(C)ccc3oc2=O)c1 [Compound 18] | 7.824 | – |
| Cc1ccc2oc(=O)c(-c3ccccc3Br)cc2c1 [Compound 8] | 7.957 | > 6.5 |
| COc1ccccc1NC(=O)c1cc2cc(C)ccc2oc1=O [Compound 101] | 6.794 | – |
| COc1cc(OC)cc(-c2cc3cccc(C)c3oc2=O)c1 [Compound 137] | 8.187 | > 6.5 |
| CC(=O)COc1ccc2oc(=O)c(-c3cccc(Br)c3)cc2c1 [Compound 71] | 5.83 | – |
| COc1cc(OC)c(-c2cc3cc(C)ccc3oc2=O)cc1Br [Compound 140] | 6.879 | > 6.5 |
| O=C(Nc1cc2ccccc2oc1=O)c1ccc(Cl)c(Cl)c1 [Compound 48] | 5.225 | – |
| COc1ccc(-c2cc3cc(C)ccc3oc2=O)cc1OC [Compound 19] | 8.564 | – |
| Cc1ccc2oc(=O)c(C(=O)Nc3ccc(Br)cc3)cc2c1 [Compound 106] | 7.943 | > 6.5 |
| Cc1ccc2oc(=O)c(C(=O)Nc3ccccc3)cc2c1 [Compound 110] | 7.815 | – |
| Cc1ccc(-c2cc3cc(OC4CCCC4)ccc3oc2=O)cc1 [Compound 16] | 4.84 | – |
| COc1ccc(-c2cc3cc(Br)ccc3oc2=O)cc1 [Compound 53] | 8.222 | – |
| Cc1ccc2oc(=O)c(-c3ccccc3[N+](=O)[O-])cc2c1 [Compound 86] | 5.258 | – |

| SMILES | pIC50 MAO-B | MAO-B pIC50 |
| --- | --- | --- |
| COc1cccc2cc(-c3ccccc3)c(=O)oc12 [Compound 34] | 6.824 | – |
| COc1ccc(-c2cc3cc(OC)ccc3oc2=O)cc1 [Compound 52] | 7.143 | – |
| COc1cccc(-c2cc3c(ccc4ccccc43)oc2=O)c1 [Compound 76] | 8.613 | > 6.5 |
| O=c1oc2ccccc2cc1-c1ccccc1 [Compound 40] | 4.928 | – |
| COc1ccc2oc(=O)c(-c3cccc(Br)c3)cc2c1 [Compound 67, 3-(3′-bromophenyl)-6-methoxycoumarin] | 9.187 | > 6.5 |
| O=c1oc2ccc3ccccc3c2cc1-c1cc(O)cc(O)c1 [Compound 85] | 4.503 | – |
| COc1ccc(-c2cc3c(ccc4ccccc43)oc2=O)cc1 [Compound 75] | 7.237 | – |
| Cc1ccc2occ(C(=O)Nc3ccccc3)c(=O)c2c1 [Compound 122] | 7.671 | – |
| COc1ccc2occ(C(=O)Nc3cccc(C)c3)c(=O)c2c1 [Compound 130] | 7.662 | – |
| Cc1ccc2oc(=O)c(-c3ccccc3)cc2c1 [Compound 1] | 6.547 | – |
| Cc1ccc2oc(=O)c(-c3ccccc3N)cc2c1 [Compound 89] | – | 5.664 |
| COc1ccccc1-c1cc2cc(C)ccc2oc1=O [Compound 6] | 6.808 | > 6.5 |
| CCC#CCNc1ccc2c(C)cc(=O)oc2c1 [Compound 151] | 5.401 | – |
| Cc1cc(=O)oc2cc(NC(=O)CC(C)(C)C)ccc12 [Compound 157] | 6.602 | – |
| O=C(Nc1cc2ccccc2oc1=O)c1cccnc1 [Compound 96] | 4.676 | – |
| COc1ccc(C(=O)Nc2cc3ccccc3oc2=O)cc1 [Compound 44] | 4.516 | – |
| CC#CCNc1cc2ccccc2oc1=O [Compound 149] | 4.922 | – |
| Cc1ccc2oc(=O)c(C(=O)Nc3ccccc3O)cc2c1 [Compound 107] | 7.738 | – |
